Data: paper PMC10687119, “Quaternary Ammonium Salts of Cationic Lipopeptides with Lysine Residues — Synthesis, Antimicrobial, Hemolytic and Cytotoxic Activities” (Probiotics and Antimicrobial Proteins, 2023)
Values after ≈ are worked out from the molar mass of the structure shown. Read-outs that look alike come from different tables or passages of the source. Where a SMILES comes first, the peptide text is derived from it. The star is where a group is joined. Stearoyl = CCCCCCCCCCCCCCCCCC(=O)*; Palmitoyl = CCCCCCCCCCCCCCCC(=O)*

Assays:
[1] = tested on: P. aeruginosa ATCC 9027; type: cell-based, Pseudomonas aeruginosa
Experimental: (§1) The Acinetobacter baumannii ATCC BAA-1605, Enterococcus faecium ATCC 700221, Klebsiella aerogenes ATCC 13048, Klebsiella pneumoniae ATCC 700603, Pseudomonas aeruginosa ATCC 9027, Staphylococcus aureus ATCC 33591, Candida glabrata ATCC 15126 strains were acquired from the American Type Culture Collection (ATCC, Manassas, USA). All the strains were stored at −80 °C in Roti-Store cryo vials (Carl Roth GmbH, Germany) and before the tests were transferred into fresh Mueller–Hinton broth (MHB, Becton Dickinson, Poland) for bacteria or RPMI-1640 (Sigma-Aldrich, Germany) for fungi and incubated for 24 h at 37 °C. Then, the cultures were cultured on the Mueller–Hinton agar (BioMaxima, Poland) or Sabouraud dextrose agar (SDA, BioMaxima) plates, respectively, and incubated as just mentioned. For microbiological assays, a minimum of three to five well-isolated colonies of the same morphological type were carefully picked from the agar cultures. These colonies were transferred with sterile loop into fresh microbiological medium and incubated with shaking (100 rpm) at 37 °C until they reached logarithmic phase of growth. Cell densities for all assays were adjusted through spectrophotometric measurements (Multiskan GO Microplate Spectrophotometer, Thermo Fisher Scientific, Finland) at 600 and 530 nm for bacteria and fungi, respectively.
(§2) The MICs were determined by broth microdilution method according to the Clinical and Laboratory Standard Institute guidelines. For this purpose, initial inoculums of bacteria (5 × 10^5 CFU/mL) in MHB and yeasts (2 × 10^3 CFU/mL) in RPMI-1640 with 2% D-glucose were exposed to the ranging concentration of lipopeptides (1–512 μg/mL) and incubated at 37 °C for 18 h and 24 h, respectively. The experiments were conducted on 96-well microtiter polystyrene plates (Kartell, Italy). The growth was assessed visually after incubation and the MIC was assumed as the lowest peptide concentration at which a noticeable growth of microorganisms was inhibited. Benzalkonium chloride (Sigma-Aldrich, Germany) was used as reference compound. All experiments were conducted in triplicate.

[2] = tested on: A. baumannii ATCC BAA 1605; type: cell-based, Acinetobacter baumannii
Experimental: as §1, §2

[3] = tested on: K. pneumoniae ATCC 700603; type: cell-based, Klebsiella pneumoniae
Experimental: as §1, §2

[4] = tested on: K. aerogenes ATCC 13048; type: cell-based, Klebsiella aerogenes
Experimental: as §1, §2

[5] = tested on: E. faecium ATCC 700221; type: cell-based, Enterococcus faecium
Experimental: as §1, §2

[6] = tested on: human keratinocyte cell line (HaCaT); type: cell-based; conditions: 24 h
Experimental: The immortalized human keratinocyte cell line (HaCaT), obtained from CLS (Cell Line Service, Germany) was cultured in DMEM-high glucose (Dulbecco’s Modified Eagle Medium) supplemented with 10% fetal bovine serum, 2 mM L-glutamine, 100 U/mL penicillin and 100 μg/mL streptomycin (Sigma-Aldrich; Merck KGaA) at 37 °C in a humidified atmosphere with 5% CO2. Cells were trypsinized, and the medium was renewed 2–3 times per week. The cytotoxicity of compounds was assessed by colorimetric CellTilter 96® Aqueous One Solution Cell Proliferation Assay (Promega, USA), containing a tetrazolium compound according to the manufacturer’s instructions. In brief, 7 × 10^3 HaCaT cells per well were plated on 96-well plates and incubated per night to adhere to the cultured dishes. After that time, different concentrations of the tested compounds ranging from 512 to 1 μg/mL were applied to the wells. Every compound was medium-soluble at 37 °C; thus, the non-treated cells were negative control. Serial dilutions of the tested compounds were always prepared before use. Cells were incubated with drugs for 24 h, and then, 20 μL of the CellTiter 96®AqueousOne Solution Reagent was added to each well containing treated cells in 100 µl of culture medium. After 4 h of incubation at 37 °C, the absorbance at 490 nm was recorded using a microplate reader (Epoch, BioTek Instruments, USA). The quantity of formazan product as measured by the amount of 490 nm absorbance is directly proportional to the number of living cells in culture. Benzalkonium chloride (Sigma-Aldrich, Germany) was used as reference compound. At least three independent experiments with two replicates were conducted for each concentration of a compound, and the IC50 values were calculated using GraphPad Prism 8 software.

[7] = tested on: S. aureus ATCC 33591; type: cell-based, Staphylococcus aureus
Experimental: as §1, §2

[8] = tested on: human red blood cells (RBCs); type: cell-based; conditions: red cells of human
Experimental: The hemolysis assay was conducted using a procedure described previously. For this purpose, human red blood cells (RBCs) isolated from K2EDTA Single Donor Human Whole blood (Innovative Research, Inc, MI, USA) were rinsed with Phosphate-buffer saline (PBS, pH 7.4±0.05, composition - KCl 2.7 mM, NaCl 140 mM, phosphate 10mM; AppliChem GmbH, Germany) by centrifugation for 10 min at 800 × g. This process was repeated 3 times and the RBCs were resuspended in PBS. Then, the stock solution of RBCs was added to the serial dilution of lipopeptides on 96-well polystyrene plates to reach a final volume of 100 μL with a 4% concentration of erythrocytes (v/v) and a concentration range of 1-512 μg/mL of tested compounds. The control wells for 0% and 100% hemolysis consisted of RBCs suspended in PBS and 1% of Triton X-100 (Sigma-Aldrich, Germany), respectively. Benzalkonium chloride (Sigma-Aldrich, Germany) was used as reference compound. Subsequently, the plates were incubated for 60 min at 37 °C and then centrifuged at 800 × g for 10 min at 4 °C (Sorvall ST […] Centrifuge, Thermo Scientific). The supernatant was carefully […] to new microtiter plates. The release of hemoglobin was monitored absorbance measurements at 540 nm (MultiskanTM GO Microplate Spectrophotometer, Thermo Scientific). All experiments were conducted in triplicate. HC50 was calculated using an ic50.tk tool.

[9] = tested on: C. glabrata ATCC 15126; type: cell-based, Candida glabrata
Experimental: as §1, §2

[10] = S. aureus ATCC 33591, 18 h, 37 °C
[11] = C. glabrata ATCC 15126, 24 h, 37 °C

| Compound | MIC ([1]; ATCC 9027, 18 h) [µg/mL] | MIC ([2]; ATCC BAA 1605, 18 h) [µg/mL] | MIC ([3]; ATCC 700603, 18 h) [µg/mL] | MIC ([4]; ATCC 13048, 18 h) [µg/mL] | MIC ([5]; ATCC 700221, 18 h) [µg/mL] | IC50 [6] [µg/mL] | MIC ([7]; ATCC 33591, 18 h) [µg/mL] | HC50 [8] [µg/mL] | MIC ([9]; ATCC 15126, 24 h) [µg/mL] | MIC [7, 10] [µg/mL] | MIC [9, 11] [µg/mL] | MIC ([1]; P. aeruginosa ATCC 9027, 18 h, 37 °C) [µg/mL] | MIC ([2]; A. baumannii ATCC BAA 1605, 18 h, 37 °C) [µg/mL] | MIC ([3]; K. pneumoniae ATCC 700603, 18 h, 37 °C) [µg/mL] | MIC ([4]; K. aerogenes ATCC 13048, 18 h, 37 °C) [µg/mL] | MIC ([5]; E. faecium ATCC 700221, 18 h, 37 °C) [µg/mL] | IC50 ([6]; HaCaT) [µg/mL] |
| --- | --- | --- | --- | --- | --- | --- | --- | --- | --- | --- | --- | --- | --- | --- | --- | --- | --- |
| CCCCCCCCCCCCCC(=O)N[C@@H](CCCCN)C(N)=O [Peptide 1M, C14-K-NH2] | >512 | >512 | >512 | >512 | 16 (≈ 45 µM) | 4.33 ± 1.12 (≈ 12.2 µM) | 16 (≈ 45 µM) | 477.61 ± 28.02 | >512 |  |  |  |  |  |  |  |  |
| CCCCCCCCCCCCCC(=O)N[C@@H](CCCC[N+](C)(C)C)C(N)=O [Peptide 1Mq, C14-K(Me3)^+-NH2] | 128 | 128 | >512 | 256 | 32 | 24.81 ± 3.88 | 32 | 88.25 ± 1.57 | 32 |  |  |  |  |  |  |  |  |
| CCCCCCCCCCCCCCCC(=O)N[C@@H](CCCCN)C(N)=O [Peptide 1P, C16-K-NH2] | >512 |  | >512 | >512 | 4 (≈ 10.4 µM) | 1.74 ± 0.49 (≈ 4.54 µM) | >512 | >512 | >512 |  |  |  |  |  |  |  |  |
| CCCCCCCCCCCCCCCC(=O)N[C@@H](CCCC[N+](C)(C)C)C(N)=O [Peptide 1Pq, C16-K(Me3)^+-NH2] | >512 | 64 | 512 | 256 | 16 | 19.25 ± 9.34 | 16 | 32.21 ± 1.97 | 8 |  |  |  |  |  |  |  |  |
| CCCCCCCCCCCCCCCCCC(=O)N[C@@H](CCCCN)C(N)=O [Peptide 1S, C18-K-NH2] | >512 | >512 | >512 | >512 |  | 8.34 ± 1.07 (≈ 20.3 µM) |  | >512 |  | > 512 |  |  |  |  |  |  |  |
| CCCCCCCCCCCCCCCCCC(=O)N[C@@H](CCCC[N+](C)(C)C)C(N)=O [Peptide 1Sq, C18-K(Me3)^+-NH2] | >512 | >512 | >512 | >512 |  | 14.13 ± 0.39 |  | 16.13 ± 9.88 | 4 to 8 |  | 4 |  |  |  |  |  |  |
| CCCCCCCCCCCCCC(=O)N[C@@H](CCCCN)C(=O)N[C@@H](CCCCN)C(N)=O [Peptide 2M, C14-KK-NH2] | 128 (≈ 265 µM) | 512 (≈ 1060 µM) | >512 | 512 (≈ 1060 µM) | 32 (≈ 66.2 µM) | 32.49 ± 4.84 (≈ 67.2 µM) | 16 (≈ 33.1 µM) | 345.21 ± 12.80 | 256 (≈ 529 µM) |  |  |  |  |  |  |  |  |
| CCCCCCCCCCCCCCCC(=O)N[C@@H](CCCCN)C(=O)N[C@@H](CCCCN)C(N)=O [Peptide 2P, C16-KK-NH2] | 16 (≈ 31.3 µM) | 64 (≈ 125 µM) | 128 (≈ 250 µM) | 32 (≈ 62.5 µM) | 8 (≈ 15.6 µM) | 10.27 ± 1.59 (≈ 20.1 µM) |  | 55.21 ± 1.69 | 16 (≈ 31.3 µM) |  |  |  |  |  |  |  |  |
| CCCCCCCCCCCCCCCCCC(=O)N[C@@H](CCCCN)C(=O)N[C@@H](CCCCN)C(N)=O [Peptide 2S, C18-KK-NH2] | 128 (≈ 237 µM) | 32 (≈ 59.3 µM) | 64 (≈ 119 µM) | 32 (≈ 59.3 µM) | 4 (≈ 7.41 µM) | 4.33 ± 0.79 (≈ 8.02 µM) |  | 21.88 ± 0.68 | 8 (≈ 14.8 µM) |  |  |  |  |  |  |  |  |
| CCCCCCCCCCCCCCCC(=O)N[C@@H](CCCCN)C(=O)N[C@@H](CCCCN)C(=O)N[C@@H](CCCCN)C(N)=O [Peptide 3P, C16-KKK-NH2] | 32 (≈ 50 µM) | 64 (≈ 100 µM) | 32 (≈ 50 µM) | 8 (≈ 12.5 µM) | 8 (≈ 12.5 µM) | 45.40 ± 20.45 (≈ 70.9 µM) |  | 135.46 ± 8.69 | 64 (≈ 100 µM) |  |  |  |  |  |  |  |  |
| CCCCCCCCCCCCCCCCCC(=O)N[C@@H](CCCCN)C(=O)N[C@@H](CCCCN)C(=O)N[C@@H](CCCCN)C(N)=O [Peptide 3S, C18-KKK-NH2] | 16 (≈ 24 µM) | 32 (≈ 47.9 µM) | 8 (≈ 12 µM) | 4 (≈ 5.99 µM) | 4 (≈ 5.99 µM) | 88.51 ± 4.72 (≈ 132 µM) |  | 32.11 ± 1.54 | 8 (≈ 12 µM) |  |  |  |  |  |  |  |  |
| CCCCCCCCCCCCCCCC(=O)N[C@@H](CCCCN)C(=O)N[C@@H](CCCCN)C(=O)N[C@@H](CCCCN)C(=O)N[C@@H](CCCCN)C(N)=O [Peptide 4P, C16-KKKK-NH2] (Palmitoyl-KKKK-NH2) | 32 (≈ 41.7 µM) | 64 (≈ 83.3 µM) | 32 (≈ 41.7 µM) | 8 (≈ 10.4 µM) | 4 (≈ 5.21 µM) | 126.80 ± 27.26 (≈ 165 µM) |  | >512 | 64 (≈ 83.3 µM) |  |  |  |  |  |  |  |  |
| CCCCCCCCCCCCCCCCCC(=O)N[C@@H](CCCCN)C(=O)N[C@@H](CCCCN)C(=O)N[C@@H](CCCCN)C(=O)N[C@@H](CCCCN)C(N)=O [Peptide 4S, C18-KKKK-NH2] (Stearoyl-KKKK-NH2) | 8 (≈ 10 µM) | 16 (≈ 20.1 µM) | 8 (≈ 10 µM) | 4 (≈ 5.02 µM) | 4 (≈ 5.02 µM) | 155.34 ± 11.20 (≈ 195 µM) |  | 48.44 ± 4.12 | 16 (≈ 20.1 µM) |  |  |  |  |  |  |  |  |
| benzalkonium chloride [BAC, reference compound] |  |  |  |  |  |  |  |  |  | 4 | 4 | 32 | 16 | 16 | 16 | 4 | 11.70 ± 0.76 |
